According to patent US12084473B2, “β-D-2′-deoxy-2′-α-fluoro-2′-β-C-substituted-2-modified-N6-substituted purine nucleotides for HCV treatment” (Atea Pharmaceuticals, Inc., priority 2015, dated 2024):
Read-outs that look alike come from different tables or passages of the source.

How the values were obtained:
[1] = test system: HCV genotype 1b luciferase reporter replicon; assay: microbe, parasite or virus in culture; type: cell-based; details: for EC95 / EC50: Hepatitis C virus; for EC95: Huh-7 luc/neo ET cells, 72 hours, luciferase, read-out: HCV Replicon EC50/EC95: EC95; for EC50: read-out: EC50 in a replicon assay; for Fold increase in activity compared to parent nucleoside: Table 7
human hepatocytes = assay: Metabolic studies in primary hepatocytes; type: in vitro ADME; details: 10 μM, 2-24 hr
Procedure: The metabolism of compounds 25, 27 and 5-2, at a concentration of 10 μM, were investigated in fresh primary cultures of human, dog and mouse hepatocytes. Plated hepatocytes from humans (XenoTech, mixed gender, pooled from 10 donors), male Beagle dog (BioreclamationIVT), and male ICR/CD-1 mice (BioreclamationIVT, 8 donors) in 6-well plates with matrigel overlay were incubated in singlet with 10 μM TA. After 2, 4, 6, 8 or 24 hr, intracellular levels of nucleotide prodrugs and their potential metabolites (prodrugs, monophosphates, triphosphates and nucleosides) were quantitated by LC-MS/MS. Concentrations below the lower limit of quantitation (1.5 pmol/10^6 cells for prodrugs, monophosphates and nucleosides and 12 pmol/10^6 cells for triphosphates) were extrapolated from the standard curves.

[2] = test system: HCV genotype 1b luciferase reporter replicon; assay: microbe, parasite or virus in culture; type: cell-based; details: Hepatitis C virus, HuH-7-Luc/Neo-ET, 72 h, read-out: HCV Replicon EC50/EC95: EC50
Huh-7 luc/neo ET cells = assay: Cytotoxicity by XTT staining in replicon cells
Summary of the method: (§1)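 Cells cultured 24 h, then exposed 72 h to six half-log dilutions (top 100.0 or 1.0 μM) in triplicate, with interferon-alpha2b reference and medium-only controls. Viability read by XTT staining on a parallel plate; TC50 derived from concentration-response.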

[3] = Cytotoxicity by XTT staining in replicon cells; details: human
Summary of the method: as §1

[4] = test system: human bone marrow progenitor cells; assay: Human Bone Marrow Progenitor Cell Assay; type: cell-based; details: 14-day incubations, colony counts
Procedure: Fresh human bone marrow progenitor cells (Invitrogen) suspended in either BFU-E or GM-CSF-specific culture medium were added, at 10^5 cells/well, to triplicate serial dilutions of TA in 6-well plates. After 14-day incubations, colony counts were used to determine CC50 values. BFU-E colonies were confirmed using the benzidene technique.

HCV wild type replicon = assay: microbe, parasite or virus in culture; type: cell-based; details: for IC50: Hepatitis C virus, read-out: IC50 Value
Procedure: (§2) A transient transfection assay was performed to determine the sensitivity of the […] of HCV to test compounds. Huh-7 cells were electroporated in the presence of RNA transcribed from wild type or S282T HCV replicon plasmids from the T7 promoter. The transfected cells were seeded in to 96-well plates at 7.5×10^3 cells per well in Dulbecco's Modified Eagle's medium. After 24 hr of incubation, medium was removed and replaced with fresh medium containing no or various concentrations of test compounds. Following an additional 96-hr incubation, the anti-HCV activity was measured by luciferase endpoint with Britelite™ Plus luminescence reporter gene kit (Perkin Elmer, Shelton, CT). Duplicate plates were treated and incubated in parallel for assessment of cellular toxicity by staining with the tetrazolium dye XTT.

HCV S282T replicon = assay: microbe, parasite or virus in culture; type: cell-based; details: for IC50: Hepatitis C virus, 96 h, read-out: IC50 Value; for Fold Change in IC50 from Sofosbuvir / Fold Change in IC95 from Sofosbuvir / IC95 Value: NS5B Mutation S282T; for IC95 Value: transient assay, 96-hr
Procedure: as §2

[5] = test system: HCV Genotype 1a, NS5B Mutation L159F; assay: microbe, parasite or virus in culture; type: cell-based; details: for IC50: Hepatitis C virus, read-out: IC50 Value; for Fold Change in IC50 from Sofosbuvir / Fold Change in IC95 from Sofosbuvir / IC95 Value: genotype 1a, NS5B L159F
Procedure: (§3) Various patient-derived HCV genotypes containing wild-type and resistance-associated variants were used to determine their relative replication sensitivity to test compounds. Replicon resistance test vectors (RTVs) containing the NS5B genomic regions were prepared using viral RNA isolated from plasma of HCV patients. Each NS5B region was amplified by reverse-transcription polymerase chain reaction and cloned into an HCV replicon RTV which was then transferred by electroporation into Huh-7 cells.

[6] = test system: HCV Genotype 3a-2, NS5B Mutation none; assay: microbe, parasite or virus in culture; type: cell-based; details: for IC50: Hepatitis C virus, read-out: IC50 Value; for Fold Change in IC50 from Sofosbuvir / Fold Change in IC95 from Sofosbuvir / IC95 Value: genotype 3a-2, no NS5B mutation
Procedure: as §3

[7] = test system: HCV Genotype 1a, NS5B Mutation L159F and S282T; assay: microbe, parasite or virus in culture; type: cell-based; details: for IC50: Hepatitis C virus, read-out: IC50 Value; for Fold Change in IC50 from Sofosbuvir / Fold Change in IC95 from Sofosbuvir / IC95 Value: genotype 1a, NS5B L159F and S282T
Procedure: as §3

[8] = test system: HCV Genotype 4d, NS5B Mutation none; assay: microbe, parasite or virus in culture; type: cell-based; details: for IC50: Hepatitis C virus, 96 h, read-out: IC50 Value; for Fold Change in IC50 from Sofosbuvir / Fold Change in IC95 from Sofosbuvir / IC95 Value: genotype 4d, no NS5B mutation
Procedure: as §3

[9] = test system: HCV Genotype 2a, NS5B Mutation none; assay: microbe, parasite or virus in culture; type: cell-based; details: for IC50: Hepatitis C virus, read-out: IC50 Value; for Fold Change in IC50 from Sofosbuvir / Fold Change in IC95 from Sofosbuvir / IC95 Value: genotype 2a, no NS5B mutation
Procedure: as §3

[10] = test system: HCV Genotype 1b, NS5B Mutation none; assay: microbe, parasite or virus in culture; type: cell-based; details: for IC50: Hepatitis C virus, read-out: IC50 Value; for Fold Change in IC50 from Sofosbuvir / Fold Change in IC95 from Sofosbuvir / IC95 Value: genotype 1b, no NS5B mutation
Procedure: as §3

[11] = test system: HCV Genotype 1b, NS5B Mutation C316N; assay: microbe, parasite or virus in culture; type: cell-based; details: for IC50: Hepatitis C virus, read-out: IC50 Value; for Fold Change in IC50 from Sofosbuvir / Fold Change in IC95 from Sofosbuvir / IC95 Value: genotype 1b, NS5B C316N
Procedure: as §3

[12] = test system: HCV Genotype 2b, NS5B Mutation none; assay: microbe, parasite or virus in culture; type: cell-based; details: for IC50: Hepatitis C virus, read-out: IC50 Value; for Fold Change in IC50 from Sofosbuvir / Fold Change in IC95 from Sofosbuvir / IC95 Value: genotype 2b, no NS5B mutation
Procedure: as §3

[13] = NS5B Mutation None, transient assay, 96-hr

SMILES: CNc1nc(N)nc2c1ncn2[C@@H]1OC(CO[P@@](=O)(N[C@@H](C)C(=O)OC(C)C)Oc2ccccc2)[C@@H](O)[C@@]1(C)F (some centres unmarked) [Compound 5-2]
- fold increase in activity (versus parent nucleoside) [1]: ≥ 3,900
- EC95 [1]: 28 nM
- EC50 [1]: 4 nM
- Fold increase in activity compared to parent nucleoside [1]: >3,900
- predominant metabolite observed in cultured human hepatocytes (human hepatocytes): β-D-2′-deoxy-2′-α-fluoro-2′-β-methyl-guanine triphosphate
- EC50 [2]: 4 nM
- TC50 (Huh-7 luc/neo ET cells): greater than one hundred
- CC50 at 72 h [3]: > 100000 nM
- cytotoxicity against bone marrow stem cells in vitro [4]: no cytotoxicity
- IC50 (HCV wild type replicon; [13]): 1.4 nM
- Fold Change in IC50 from Sofosbuvir (HCV wild type replicon; NS5B Mutation None): 26
- Fold Change in IC95 from Sofosbuvir (HCV wild type replicon; NS5B Mutation None): 22.2
- IC95 Value (HCV wild type replicon; [13]): 9.98 nM
- cross-resistance to S282T variant (HCV S282T replicon): neither 25, 27, nor 5-2 compounds showed any evidence of cross-resistance
- IC50 (HCV S282T replicon): 2.8 nM
- Fold Change in IC50 from Sofosbuvir (HCV S282T replicon): 99.3
- Fold Change in IC95 from Sofosbuvir (HCV S282T replicon): <48.5
- IC95 Value (HCV S282T replicon): 20.6 nM
- cross-resistance to L159F mutant [5]: neither 25, 27 nor 5-2 compound showed any evidence of cross-resistance
- IC50 [5]: 13 nM
- Fold Change in IC50 from Sofosbuvir [5]: 8.8
- Fold Change in IC95 from Sofosbuvir [5]: 11.2
- IC95 Value [5]: 95.3 nM
- IC50 [6]: 10.4 nM
- Fold Change in IC50 from Sofosbuvir [6]: 11.9
- Fold Change in IC95 from Sofosbuvir [6]: 14.3
- IC95 Value [6]: 56.5 nM
- cross-resistance to L159F and S282T mutant [7]: neither 25, 27 nor 5-2 compound showed any evidence of cross-resistance
- IC50 [7]: 38.7 nM
- Fold Change in IC50 from Sofosbuvir [7]: 41.9
- Fold Change in IC95 from Sofosbuvir [7]: 54.1
- IC95 Value [7]: 313.5 nM
- IC50 [8]: 14 nM
- Fold Change in IC50 from Sofosbuvir [8]: 6.7
- Fold Change in IC95 from Sofosbuvir [8]: 12.8
- IC95 Value [8]: 79.9 nM
- IC50 [9]: 6.2 nM
- Fold Change in IC50 from Sofosbuvir [9]: 3.6
- Fold Change in IC95 from Sofosbuvir [9]: 4.3
- IC95 Value [9]: 45.4 nM
- IC50 [10]: 10.6 nM
- Fold Change in IC50 from Sofosbuvir [10]: 0.8
- Fold Change in IC95 from Sofosbuvir [10]: 8.9
- IC95 Value [10]: 72.4 nM
- cross-resistance to C316N mutant [11]: neither 25, 27 nor 5-2 compound showed any evidence of cross-resistance
- IC50 [11]: 7.7 nM
- Fold Change in IC50 from Sofosbuvir [11]: 9.6
- Fold Change in IC95 from Sofosbuvir [11]: 11.1
- IC95 Value [11]: 42.7 nM
- IC50 [12]: 6.3 nM
- Fold Change in IC50 from Sofosbuvir [12]: 7.1
- Fold Change in IC95 from Sofosbuvir [12]: 9.1
- IC95 Value [12]: 32.5 nM

SMILES: CC(C)OC(=O)[C@H](C)N[P@](=O)(OCC1O[C@@H](n2cnc3c(N(C)C)nc(N)nc32)[C@](C)(F)[C@@H]1O)Oc1ccccc1 (stereo partly drawn) [Compound 25, isopropyl ((((S)-(2R,3R,4R,5R)-5-(2-amino-6-(dimethylamino)-9H-purin-9-yl)-4-fluoro-3-hydroxy-4-methyltetrahydrofuran-2-yl)methoxy)-phenoxy-phosphoryl)-L-alaninate]
- fold increase in activity (versus parent nucleoside) [1]: ≥ 2,600
- EC95 [1]: 19 nM
- EC50 [1]: 4 nM
- Fold increase in activity compared to parent nucleoside [1]: >2,600
- predominant metabolite observed in cultured human hepatocytes (human hepatocytes): β-D-2′-deoxy-2′-α-fluoro-2′-β-methyl-guanine triphosphate
- EC50 [2]: 4 nM
- CC50 (Huh-7 luc/neo ET cells; read-out: HCV Replicon CC50, XTT, 72 hours): > 100000 nM
- CC50 (Huh-7 luc/neo ET cells; read-out: TC50, FIG. 3 legend): > 100000 nM
- CC50 at 72 h [3]: > 100000 nM
- cytotoxicity against bone marrow stem cells in vitro [4]: no cytotoxicity
- IC95 Value (HCV wild type replicon): 2.7 nM
- IC50 (HCV wild type replicon; 96 h): < 1 nM
- Fold Change in IC50 from Sofosbuvir (HCV wild type replicon; NS5B Mutation None): >36.4
- Fold Change in IC95 from Sofosbuvir (HCV wild type replicon; NS5B Mutation None): 80.7
- cross-resistance to S282T variant (HCV S282T replicon): neither 25, 27, nor 5-2 compounds showed any evidence of cross-resistance
- IC50 (HCV S282T replicon): < 1 nM
- Fold Change in IC50 from Sofosbuvir (HCV S282T replicon): >278
- Fold Change in IC95 from Sofosbuvir (HCV S282T replicon): >106.4
- IC95 Value (HCV S282T replicon): 9.4 nM
- cross-resistance to L159F mutant [5]: neither 25, 27 nor 5-2 compound showed any evidence of cross-resistance
- IC50 [5]: 5.2 nM
- Fold Change in IC50 from Sofosbuvir [5]: 22.0
- Fold Change in IC95 from Sofosbuvir [5]: 26.4
- IC95 Value [5]: 40.4 nM
- IC50 [6]: 4.7 nM
- Fold Change in IC50 from Sofosbuvir [6]: 26.3
- Fold Change in IC95 from Sofosbuvir [6]: 33.4
- IC95 Value [6]: 24.2 nM
- cross-resistance to L159F and S282T mutant [7]: neither 25, 27 nor 5-2 compound showed any evidence of cross-resistance
- IC50 [7]: 17.2 nM
- Fold Change in IC50 from Sofosbuvir [7]: 94.0
- Fold Change in IC95 from Sofosbuvir [7]: 107.0
- IC95 Value [7]: 158.5 nM
- IC50 [8]: 5.9 nM
- Fold Change in IC50 from Sofosbuvir [8]: 16.0
- Fold Change in IC95 from Sofosbuvir [8]: 23.1
- IC95 Value [8]: 44.2 nM
- IC50 [9]: 2.7 nM
- Fold Change in IC50 from Sofosbuvir [9]: 8.4
- Fold Change in IC95 from Sofosbuvir [9]: 8.8
- IC95 Value [9]: 22.2 nM
- IC50 [10]: 5.9 nM
- Fold Change in IC50 from Sofosbuvir [10]: 1.0
- Fold Change in IC95 from Sofosbuvir [10]: 20.0
- IC95 Value [10]: 32.0 nM
- cross-resistance to C316N mutant [11]: neither 25, 27 nor 5-2 compound showed any evidence of cross-resistance
- IC50 [11]: 3.2 nM
- Fold Change in IC50 from Sofosbuvir [11]: 23.1
- Fold Change in IC95 from Sofosbuvir [11]: 26.2
- IC95 Value [11]: 18.1 nM
- IC50 [12]: 3 nM
- Fold Change in IC50 from Sofosbuvir [12]: 15.2
- Fold Change in IC95 from Sofosbuvir [12]: 19.9
- IC95 Value [12]: 14.9 nM
